Source: patent publication US9988371B2, “Benzimidazole analogues and related methods” (The Arizona Board of Regents, on Behalf of the University …, priority 2014, dated 2018)

Target: T1, RET/C634W (Homo sapiens, UniProt P07949, C634W)
T1 construct: RET protein endogenously expressed in TT cells; endogenous in cells; host or cells: TT (human medullary thyroid carcinoma)
Assay: RET auto-phosphorylation immunoblot in TT cells
Type: cell-based
Conditions: 1 nM
Protocol: FIG. 3: Photographs of blots showing inhibition of RET protein endogenously expressed in TT cells (human MTC cell line expressing RET/C634W) by indicated concentrations of Pz-1 or vehicle (NT: not treated) and reduced effects in thyroid non-transformed Nthy-ori-3-1 cells. Serum-starved human TT and thyroid non-transformed Nthy-ori-3-1 cell lines were treated for 2 hr with indicated concentrations of Pz-1. 50 μg of total cell lysates were subjected to immunoblotting with anti-phospho-Y1062 (αp1062) and anti-phospho-905 (αpY905) RET antibodies, anti-phospho-MAPK (αpMAPK, T302/Y304), and anti-phospho-SHC (αpSHC, Y317) antibodies. The blots were normalized using anti-RET (αRET) and anti-SHC (αSHC).
The inhibition of RET auto-phosphorylation by Pz-1 was measured in several different cell lines including NIH3T3 fibroblasts expressing RET/C634Y or RET/M918T, TT expressing RET/C634W (MTC), Nthy-ory-3-1 (thyroid, non-transformed with RET; negative control), HEK293/RET/PTC1 (CCDC6-RET that can be found in PTC & lung cancer), HEK293/RET-KIF5B (that can be found in lung cancer), HEK293/RET/PTC3 (NCOA4-RET, that can be found in PTC & lung cancer), and HEK293 transfected with RET/C634R-V804M (FIGS. 1-3). […]
Protein lysates were prepared according to standard procedures. […] Immune complexes were detected with the enhanced chemiluminescence kit (Amersham Pharmacia Biotech, Little Chalfort, UK). […]

T1 sequence (P07949 29-1114 C634W): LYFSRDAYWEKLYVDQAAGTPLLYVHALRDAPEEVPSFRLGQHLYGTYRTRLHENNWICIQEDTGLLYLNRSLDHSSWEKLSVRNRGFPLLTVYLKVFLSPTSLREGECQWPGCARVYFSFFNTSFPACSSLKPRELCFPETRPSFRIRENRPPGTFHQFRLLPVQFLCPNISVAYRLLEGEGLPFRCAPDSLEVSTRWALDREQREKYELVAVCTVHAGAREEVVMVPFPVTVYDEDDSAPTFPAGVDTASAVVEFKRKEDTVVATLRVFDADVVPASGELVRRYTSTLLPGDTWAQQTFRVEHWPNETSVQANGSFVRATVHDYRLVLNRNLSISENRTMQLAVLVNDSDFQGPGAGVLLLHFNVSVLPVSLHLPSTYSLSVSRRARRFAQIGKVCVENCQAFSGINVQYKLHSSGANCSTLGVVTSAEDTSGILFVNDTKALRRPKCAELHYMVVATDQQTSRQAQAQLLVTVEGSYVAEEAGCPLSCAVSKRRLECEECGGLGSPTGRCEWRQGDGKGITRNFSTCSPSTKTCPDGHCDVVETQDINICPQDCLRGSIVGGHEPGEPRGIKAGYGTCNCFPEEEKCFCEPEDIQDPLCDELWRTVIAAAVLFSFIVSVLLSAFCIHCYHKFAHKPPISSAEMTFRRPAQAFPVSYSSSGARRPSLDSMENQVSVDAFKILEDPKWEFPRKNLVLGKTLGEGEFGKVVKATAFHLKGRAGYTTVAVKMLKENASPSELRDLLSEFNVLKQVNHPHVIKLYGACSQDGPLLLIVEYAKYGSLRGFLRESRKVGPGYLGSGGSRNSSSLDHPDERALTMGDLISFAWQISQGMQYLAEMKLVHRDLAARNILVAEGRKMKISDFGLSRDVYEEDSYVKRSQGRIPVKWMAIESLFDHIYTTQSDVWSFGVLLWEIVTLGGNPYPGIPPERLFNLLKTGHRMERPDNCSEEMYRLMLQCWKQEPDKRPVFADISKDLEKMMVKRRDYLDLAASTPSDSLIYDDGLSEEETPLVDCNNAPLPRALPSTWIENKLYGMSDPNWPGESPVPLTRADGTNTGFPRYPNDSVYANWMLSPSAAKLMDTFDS

## Cn1cc(-c2ccc3c(c2)ncn3-c2ccc(CC(=O)Nc3cc(C(C)(C)C)on3)cc2)cn1 [Pz-1, N-(5-(tert-butyl)isoxazol-3-yl)-2-(4-(5-(1-methyl-1H-pyrazol-4-yl)-1H-benzo[d]imidazol-1-yl)phenyl)acetamide]
  inhibition of pRET: strongly inhibited
